Source: patent US7425551B2, “Malonamide derivatives” (Hoffmann-La Roche Inc., priority 2006, dated 2008)
Several values for one entry are separate records, joined by “and”; a condition that tells them apart may be missing. Identical values can stand only once.

Key:
[1] = target: T1, γ-secretase (Homo sapiens, UniProt P49768); experiment: in vitro assay of γ-secretase activity (HEK293 membrane fraction, recombinant APP substrate, Abeta ELISA); type: biochemical; details: γ-secretase inhibition; HEK293 membrane fraction solubilized in 0.25% CHAPSO, recombinant human APP C-terminal 100 amino acids substrate, Abeta detected by ELISA
T1 construct: uses a HEK293 membrane fraction as a source of γ-secretase; endogenous in cells; host or cells: HEK293 (microsomal membrane fraction, solubilised in 0.25% CHAPSO)
How it was run: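 The microsomal fraction of HEK293 cells was solubilized in 0.25% CHAPSO and incubated with a His-tagged C-terminal 100-residue human APP fragment expressed in E. coli. Abeta peptides produced by cleavage were quantified by specific ELISA.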

Row | IC50 [1] | Structure (SMILES) | melting point
1 | 12 nM | C[C@H](OC(=O)NCCC(F)(F)C(F)(F)F)C(=O)N[C@@H]1C(=O)N(CCO)c2ccccc2-c2ccccc21 [Example 38, (3,3,4,4,4-Pentafluoro-butyl)-carbamic acid (S)-1-[(S)-5-(2-hydroxy-ethyl)-6-oxo-6,7-dihydro-5H-dibenzo[b,d]azepin-7-ylcarbamoyl]-ethyl ester] | 181 to 184 °C
2 | 10 nM | CC(O)(C(=O)NCCC(F)(F)F)C(=O)N[C@@H]1C(=O)N(CCO)c2ccccc2-c2ccccc21 (stereo partly drawn) [Example 64, 2-Hydroxy-N—[(S)-5-(2-hydroxy-ethyl)-6-oxo-6,7-dihydro-5H-dibenzo[b,d]azepin-7-yl]-2-methyl-N′-(3,3,3-trifluoro-propyl)-malonamide] | 61 to 69 °C and 59 to 62 °C and 64 to 71 °C
